# Measurements published in patent US6737383B1, “Herbicidal oxadiazolidines” (priority 1999, dated 2004).
# Key:
# Settings in all cases: Preemergence, 0 to 100 scale
# purple nutsedge = test: Test D purple nutsedge; type: in vivo, Cyperus rotundus
# Text: (§1) Seeds, tubers, or plant parts of Alexandergrass (Brachiaria plantaginea), bermuda-grass (Cynodon dactylon), common pursiane (Portulaca oleracea), common ragweed (Ambrosia elatior), common groundsel (Senecio vulgaris), dallisgrass (Paspalum dilatatum), goosegrass (Eleusine indica), guineagrass (Panicum maximum), itchgrass (Rottboellia exaltata), Johnson grass (Sorghum halepense), large crabgrass (Digitaria sanguinalis), pitted morningglory (Ipomoea lacunosa), purple nutsedge (Cyperus rotundus), sandbur (Cenchrus echinatus), sourgrass (Trichachne insularis), Spanishneedles (Bidens bipinnata), surinam grass (Brachiaria decumbens) and tall mallow (Malva sylvestris) were planted into greenhouse pots of flats containing greenhouse planting medium. Plant species were grown in separate pots or individual compartments. Preemergence applications were made within one day of planting the seed or plant part.
# (§2) Test chemicals were formulated in a non-phytotoxic solvent mixture which included a surfactant and applied preemergence to the surface of the pot containing seeds in a sandy loam soil. Untreated control pots and treated pots were placed in the greenhouse for growth and visually evaluated for injury 14 to 21 days after herbicide application. Plant response ratings, summarized in Table C, are based on a 0 to 100 scale where 0 is no injury and 100 is complete control. A dash (−) response means no test result.
# large crabgrass = test: Test D large crabgrass; type: in vivo, Digitaria sanguinalis
# Text: as §1, §2
# guineagrass = test: Test D guineagrass; type: in vivo, Panicum maximum
# Procedure, shortened: (§3)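 Scoring used a 0–100 visual injury scale, with 0 meaning no effect and 100 complete control, assessed 14–21 days after application alongside untreated pots. Preemergence treatments went onto sandy loam surfaces of separately potted seeds within a day of sowing.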
# Alexandergrass = test: Test D Alexandergrass; type: in vivo, Brachiaria plantaginea
# Procedure, shortened: as §3
# goosegrass = test: Test D goosegrass; type: in vivo, Eleusine indica
# Text: as §1, §2
# surinam grass = test: Test D surinam grass; type: in vivo, Brachiaria decumbens
# Procedure, shortened: as §3
# sandbur = test: Test D sandbur; type: in vivo, Cenchrus echinatus
# Text: as §1, §2
# common groundsel = test: Test D common groundsel; type: in vivo, Senecio vulgaris
# Text: as §1, §2
# [1] = Rate 32 g/ha, 0 no injury, 100 complete control
# [2] = Rate 64 g/ha, 0 no injury, 100 complete control
# [3] = Rate 125 g/ha, 0 no injury, 100 complete control
# [4] = Rate 16 g/ha, 0 no injury, 100 complete control
smiles,measurement,setting,value
Cc1cccc(C)c1-n1c(=O)on(C(=O)N(c2ccc(F)cc2F)C(C)C)c1=O [Compound 28],"Plant response rating, Purple nutsedge",purple nutsedge; [1],0
same,Purple nutsedge plant response rating,purple nutsedge; [2],0
same,Purple nutsedge plant response rating,purple nutsedge; [3],0
same,"Plant response rating, Purple nutsedge",purple nutsedge; Rate 250 g/ha,0
same,Plant response rating Large crabgrass,large crabgrass; [1],85
same,Plant response rating Large crabgrass,large crabgrass; [2],98
same,Plant response rating Large crabgrass,large crabgrass; [3],100
same,Plant response rating Large crabgrass,large crabgrass; Rate 250 g/ha,100
same,"Plant response rating, Guineagrass",guineagrass; [1],40
same,"Plant response rating, Guineagrass",guineagrass; [2],65
same,"Plant response rating, Guineagrass",guineagrass; [3],75
same,"Plant response rating, Guineagrass",guineagrass; Rate 250 g/ha,98
same,"Plant response rating, Alexandergrass",Alexandergrass; [1],0
same,"Plant response rating, Alexandergrass",Alexandergrass; [2],0
same,"Plant response rating, Alexandergrass",Alexandergrass; [3],60
same,"Plant response rating, Alexandergrass",Alexandergrass; Rate 250 g/ha,75
same,"Plant response rating, Goosegrass",goosegrass; [1],0
same,"Plant response rating, Goosegrass",goosegrass; [2],85
same,"Plant response rating, Goosegrass",goosegrass; [3],98
same,"Plant response rating, Goosegrass",goosegrass; Rate 250 g/ha,100
same,"Plant response rating, Surinam grass",surinam grass; [1],0
same,Surinam grass plant response rating,surinam grass; [2],0
same,Surinam grass plant response rating,surinam grass; [3],65
same,"Plant response rating, Surinam grass",surinam grass; Rate 250 g/ha,75
same,"Plant response rating, Sandbur",sandbur; [1],0
same,Sandbur plant response rating,sandbur; [2],0
same,Sandbur plant response rating,sandbur; [3],0
same,"Plant response rating, Sandbur",sandbur; Rate 250 g/ha,0
same,"Plant response rating, Com. groundsel",common groundsel; [1],0
same,"Plant response rating, Com. groundsel",common groundsel; [2],0
same,"Plant response rating, Com. groundsel",common groundsel; [3],0
same,"Plant response rating, Com. groundsel",common groundsel; Rate 250 g/ha,0
CCn1c(=O)on(C(=O)N(c2ccc(F)cc2)C(C)C)c1=O [Compound 107],"Plant response rating, Purple nutsedge",purple nutsedge; [4],0
same,"Plant response rating, Purple nutsedge",purple nutsedge; [1],0
same,Purple nutsedge plant response rating,purple nutsedge; [2],20
same,Purple nutsedge plant response rating,purple nutsedge; [3],65
same,"Plant response rating, Purple nutsedge",purple nutsedge; Rate 250 g/ha,85
same,"Plant response rating, Purple nutsedge",purple nutsedge; Rate 500 g/ha,85
same,Plant response rating Large crabgrass,large crabgrass; [4],85
same,Plant response rating Large crabgrass,large crabgrass; [1],98
same,Plant response rating Large crabgrass,large crabgrass; [2],100
same,Plant response rating Large crabgrass,large crabgrass; [3],100
same,Plant response rating Large crabgrass,large crabgrass; Rate 250 g/ha,100
same,Plant response rating Large crabgrass,large crabgrass; Rate 500 g/ha,100
same,"Plant response rating, Guineagrass",guineagrass; [4],65
same,"Plant response rating, Guineagrass",guineagrass; [1],75
same,"Plant response rating, Guineagrass",guineagrass; [2],100
same,"Plant response rating, Guineagrass",guineagrass; [3],100
same,"Plant response rating, Guineagrass",guineagrass; Rate 250 g/ha,100
same,"Plant response rating, Guineagrass",guineagrass; Rate 500 g/ha,100
same,"Plant response rating, Alexandergrass",Alexandergrass; [4],0
same,"Plant response rating, Alexandergrass",Alexandergrass; [1],90
same,"Plant response rating, Alexandergrass",Alexandergrass; [2],100
same,"Plant response rating, Alexandergrass",Alexandergrass; [3],100
same,"Plant response rating, Alexandergrass",Alexandergrass; Rate 250 g/ha,100
same,"Plant response rating, Alexandergrass",Alexandergrass; Rate 500 g/ha,100
same,"Plant response rating, Goosegrass",goosegrass; [4],85
same,"Plant response rating, Goosegrass",goosegrass; [1],98
same,"Plant response rating, Goosegrass",goosegrass; [2],100
same,"Plant response rating, Goosegrass",goosegrass; [3],100
same,"Plant response rating, Goosegrass",goosegrass; Rate 250 g/ha,100
same,"Plant response rating, Goosegrass",goosegrass; Rate 500 g/ha,100
same,"Plant response rating, Surinam grass",surinam grass; [4],30
same,"Plant response rating, Surinam grass",surinam grass; [1],75
same,Surinam grass plant response rating,surinam grass; [2],100
same,Surinam grass plant response rating,surinam grass; [3],100
same,"Plant response rating, Surinam grass",surinam grass; Rate 250 g/ha,100
same,"Plant response rating, Surinam grass",surinam grass; Rate 500 g/ha,100
same,"Plant response rating, Sandbur",sandbur; [4],30
same,"Plant response rating, Sandbur",sandbur; [1],30
same,Sandbur plant response rating,sandbur; [2],65
same,Sandbur plant response rating,sandbur; [3],98
same,"Plant response rating, Sandbur",sandbur; Rate 250 g/ha,100
same,"Plant response rating, Sandbur",sandbur; Rate 500 g/ha,100
same,"Plant response rating, Com. groundsel",common groundsel; [4],40
same,"Plant response rating, Com. groundsel",common groundsel; [1],75
same,"Plant response rating, Com. groundsel",common groundsel; [2],98
same,"Plant response rating, Com. groundsel",common groundsel; [3],100
same,"Plant response rating, Com. groundsel",common groundsel; Rate 250 g/ha,100
same,"Plant response rating, Com. groundsel",common groundsel; Rate 500 g/ha,100
C=C(C)Cn1c(=O)on(C(=O)N(c2ccc(F)cc2)C(C)C)c1=O [Compound 139],Purple nutsedge plant response rating,purple nutsedge; [2],0
same,Plant response rating Large crabgrass,large crabgrass; [2],90
same,"Plant response rating, Guineagrass",guineagrass; [2],65
same,"Plant response rating, Alexandergrass",Alexandergrass; [2],60
same,"Plant response rating, Goosegrass",goosegrass; [2],98
same,Surinam grass plant response rating,surinam grass; [2],20
same,Sandbur plant response rating,sandbur; [2],40
same,"Plant response rating, Com. groundsel",common groundsel; [2],0
